Laboratory results reported in PMC2656571 (Journal of medicinal chemistry, 2008).

Key:
Assay type in all cases: cell-based
[1] = tested on: HIV-1 IIIB; assay: Inhibition of HIV-1 IIIB replication in MT-2 cells; settings: CC50 (MT-2 cells) / EC50 (p24 production)
[2] = tested on: MT-2 cells; assay: In vitro cytotoxicity on MT-2 cells; settings: human
[3] = tested on: HIV-1; assay: HIV-1-mediated cytopathic effect; settings: data not shown
[4] = tested on: HIV-1-mediated cell-cell fusion; assay: HIV-1-mediated cell-cell fusion; settings: data not shown

Row | SMILES | SI (selectivity index, CC50/EC50) [1] | CC50 at 4 days [2] [µM] | Inhibition of HIV-1-mediated cytopathic effect (CPE) [3] | Inhibition of HIV-1-mediated cell-cell fusion [4]
1 | O=C(O)c1cc(-n2cccc2)ccc1O [Compound A2, N-(3-Carboxy-4-hydroxy)phenylpyrrole] | >50.99 | > 493 |  | 
2 | O=C(O)c1ccc(-n2cccc2)cc1 [Compound A6, N-(4-Carboxy)phenylpyrrole] | >7.72 | > 535 |  | 
3 | O=C(O)Cc1ccc(-n2cccc2)cc1 [Compound A7, N-(4-Carboxymethene)phenylpyrrole] | >1.34 | > 498 |  | 
4 | O=C(O)c1ccc(Cn2cccc2)cc1 [Compound A9, N-(4-Carboxy)benzylpyrrole] | >7.78 | > 498 |  | 
5 | O=C(O)Cc1ccc(Cn2cccc2)cc1 [Compound A10, N-(4-Carboxymethene)benzylpyrrole] |  | > 465 |  | 
6 | Cc1ccc(C)n1-c1ccc(O)c(C(=O)O)c1 [Compound A12, N-(3-Carboxy-4-hydroxy)phenyl-2,5-dimethylpyrrole] |  |  | effectively inhibited | effectively inhibited
7 | Cc1ccc(C)n1-c1ccc(Cl)cc1C(=O)O [Compound A18, N-(4-Chloro-2-carboxy)phenyl-2,5-dimethylpyrrole] | >46.73 | > 400 |  | 
8 | Cc1ccc(C)n1Cc1ccc(C(=O)O)cc1 [Compound A19, N-(4-Carboxy)benzyl-2,5-dimethylpyrrole] | 19.20 | 299 |  | 
9 | O=C(O)c1ccc(-c2noc(CCl)n2)cc1 [Compound B6, 3-(4-Carboxy)phenyl-5-chloromethyl-1,2,4-oxadiazole] | > 16 |  |  | 
10 | O=C(O)c1ccc(-c2noc(C(F)(F)F)n2)cc1 [Compound B10, 3-(4-Carboxyphenyl)-5-(trifluoromethyl)-1,2,4-oxadiazole] | > 16 |  |  | 
